{
  "source": "patent US12077503B2",
  "about": "“Substituted cyclic amides and their use as herbicides” (FMC CORPORATION, priority 2015, dated 2024)",
  "format_in_all_cases": "in vivo",
  "key": {"[1]": {"system": "barnyardgrass (Echinochloa crus-galli)", "assay": "Test G Post-Emergence Protocol", "details": "Echinochloa crus-galli, post-emergence, 312 h, read-out: Barnyardgrass damage rating", "outline": "(§1)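 Eight days post-sowing, plants received a spray of test compound (acetone/water 50:50, 0.5% Tween 20) at 15.625, 62.5 or 250 g/ha. Glasshouse regime thereafter: 24/16 °C, 14 h light, 65% humidity. Assessment after 13 days on a 0–100 damage scale.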"}, "[2]": {"system": "ivy-leaved morning glory (Ipomoea hederacea)", "assay": "Test G Post-Emergence Protocol", "details": "Ipomoea, post-emergence, 312 h, read-out: Morningglory, Ivy-leaved damage rating", "outline": "as §1"}, "[3]": {"system": "redroot pigweed (Amaranthus retroflexus)", "assay": "Test G Post-Emergence Protocol", "details": "Amaranthus retroflexus, post-emergence, 312 h, read-out: Pigweed, Redroot damage rating", "outline": "as §1"}, "[4]": {"system": "corn (Zea mays)", "assay": "Test G Post-Emergence Protocol", "details": "Zea mays, post-emergence, 312 h, read-out: Corn damage rating", "outline": "as §1"}, "[5]": {"system": "velvetleaf (Abutilon theophrasti)", "assay": "Test G Post-Emergence Protocol", "details": "Abutilon theophrasti, post-emergence, 312 h, read-out: Velvetleaf damage rating", "outline": "as §1"}, "[6]": {"system": "giant foxtail (Setaria faberi)", "assay": "Test G Post-Emergence Protocol", "details": "Setaria faberi, post-emergence, 312 h, read-out: Foxtail, Giant damage rating", "outline": "as §1"}, "[7]": {"system": "barnyardgrass (Echinochloa crus-galli)", "assay": "Test G Pre-Emergence Protocol", "details": "Echinochloa crus-galli, pre-emergence, 312 h, evaluated after 13 days", "outline": "(§2)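 Visual injury (0–100) at day 13 after a single pre-emergence spray. Rates: 15.625, 62.5, 250 g/ha in acetone–water 50:50 with 0.5% Tween 20. Growth conditions: 24/16° C, 14 h light, 65% humidity.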"}, "[8]": {"system": "ivy-leaved morning glory (Ipomoea hederacea)", "assay": "Test G Pre-Emergence Protocol", "details": "Ipomoea, pre-emergence, 312 h, evaluated after 13 days", "outline": "as §2"}, "[9]": {"system": "redroot pigweed (Amaranthus retroflexus)", "assay": "Test G Pre-Emergence Protocol", "details": "Amaranthus retroflexus, pre-emergence, 312 h, evaluated after 13 days", "outline": "as §2"}, "[10]": {"system": "corn (Zea mays)", "assay": "Test G Pre-Emergence Protocol", "details": "Zea mays, pre-emergence, 312 h, evaluated after 13 days", "outline": "as §2"}, "[11]": {"system": "velvetleaf (Abutilon theophrasti)", "assay": "Test G Pre-Emergence Protocol", "details": "Abutilon theophrasti, pre-emergence, 312 h, evaluated after 13 days", "outline": "as §2"}, "[12]": {"system": "giant foxtail (Setaria faberi)", "assay": "Test G Pre-Emergence Protocol", "details": "Setaria faberi, pre-emergence, 312 h, evaluated after 13 days", "outline": "as §2"}, "[13]": {"details": "15.625 g ai/ha, evaluated after 13 days (100=total damage to plant; 0=no damage to plant)"}, "[14]": {"details": "62.5 g ai/ha, evaluated after 13 days, 100=total damage to plant, 0=no damage to plant"}, "[15]": {"details": "250 g ai/ha, evaluated after 13 days, 100=total damage to plant, 0=no damage to plant"}},
  "data": [
    {"smiles": "CN1C[C@@H](c2ccc(C(F)(F)F)cc2)[C@H](C(=O)Nc2cncc(F)n2)C1=O", "note": "(racemic) [Compound 1657]", "values": [
      {"measurement": "pest or weed control at 15.625 g/ha", "setting": "[1]; [13]", "value": 0, "unit": "%"},
      {"measurement": "pest or weed control at 62.5 g/ha", "setting": "[1]; [14]", "value": 10, "unit": "%"},
      {"measurement": "pest or weed control at 250 g/ha", "setting": "[1]; [15]", "value": 40, "unit": "%"},
      {"measurement": "pest or weed control at 15.625 g/ha", "setting": "[2]; [13]", "value": 0, "unit": "%"},
      {"measurement": "pest or weed control at 62.5 g/ha", "setting": "[2]; [14]", "value": 10, "unit": "%"},
      {"measurement": "pest or weed control at 250 g/ha", "setting": "[2]; [15]", "value": 30, "unit": "%"},
      {"measurement": "pest or weed control at 15.625 g/ha", "setting": "[3]; [13]", "value": 0, "unit": "%"},
      {"measurement": "pest or weed control at 62.5 g/ha", "setting": "[3]; [14]", "value": 40, "unit": "%"},
      {"measurement": "pest or weed control at 250 g/ha", "setting": "[3]; [15]", "value": 60, "unit": "%"},
      {"measurement": "plant injury at 15.625 g/ha", "setting": "[4]; [13]", "value": 0, "unit": "%"},
      {"measurement": "plant injury at 62.5 g/ha", "setting": "[4]; [14]", "value": 10, "unit": "%"},
      {"measurement": "plant injury at 250 g/ha", "setting": "[4]; [15]", "value": 20, "unit": "%"},
      {"measurement": "pest or weed control at 15.625 g/ha", "setting": "[5]; [13]", "value": 0, "unit": "%"},
      {"measurement": "pest or weed control at 62.5 g/ha", "setting": "[5]; [14]", "value": 20, "unit": "%"},
      {"measurement": "pest or weed control at 250 g/ha", "setting": "[5]; [15]", "value": 20, "unit": "%"},
      {"measurement": "pest or weed control at 15.625 g/ha", "setting": "[6]; [13]", "value": 0, "unit": "%"},
      {"measurement": "pest or weed control at 62.5 g/ha", "setting": "[6]; [14]", "value": 40, "unit": "%"},
      {"measurement": "pest or weed control at 250 g/ha", "setting": "[6]; [15]", "value": 70, "unit": "%"},
      {"measurement": "pest or weed control at 15.625 g/ha", "setting": "[7]; 15.625 g ai/ha, read-out: Barnyardgrass damage rating (100=total damage to plant; 0=no damage to plant)", "value": 0, "unit": "%"},
      {"measurement": "pest or weed control at 62.5 g/ha", "setting": "[7]; 62.5 g ai/ha, 100=total damage to plant, 0=no damage to plant, read-out: Barnyardgrass damage rating", "value": 10, "unit": "%"},
      {"measurement": "pest or weed control at 250 g/ha", "setting": "[7]; 250 g ai/ha, read-out: Barnyardgrass damage rating (100=total damage to plant; 0=no damage to plant)", "value": 20, "unit": "%"},
      {"measurement": "pest or weed control at 15.625 g/ha", "setting": "[8]; 15.625 g ai/ha, read-out: Morningglory, Ivy-leaved damage rating (100=total damage to plant; 0=no damage to plant)", "value": 0, "unit": "%"},
      {"measurement": "pest or weed control at 62.5 g/ha", "setting": "[8]; 62.5 g ai/ha, 100=total damage to plant, 0=no damage to plant, read-out: Morningglory, Ivy-leaved damage rating", "value": 0, "unit": "%"},
      {"measurement": "pest or weed control at 250 g/ha", "setting": "[8]; 250 g ai/ha, read-out: Morningglory, Ivy-leaved damage rating (100=total damage to plant; 0=no damage to plant)", "value": 0, "unit": "%"},
      {"measurement": "pest or weed control at 15.625 g/ha", "setting": "[9]; 15.625 g ai/ha, read-out: Pigweed, Redroot damage rating (100=total damage to plant; 0=no damage to plant)", "value": 0, "unit": "%"},
      {"measurement": "pest or weed control at 62.5 g/ha", "setting": "[9]; 62.5 g ai/ha, 100=total damage to plant, 0=no damage to plant, read-out: Pigweed, Redroot damage rating", "value": 20, "unit": "%"},
      {"measurement": "pest or weed control at 250 g/ha", "setting": "[9]; 250 g ai/ha, read-out: Pigweed, Redroot damage rating (100=total damage to plant; 0=no damage to plant)", "value": 50, "unit": "%"},
      {"measurement": "plant injury at 15.625 g/ha", "setting": "[10]; 15.625 g ai/ha, read-out: Corn damage rating (100=total damage to plant; 0=no damage to plant)", "value": 0, "unit": "%"},
      {"measurement": "plant injury at 62.5 g/ha", "setting": "[10]; 62.5 g ai/ha, 100=total damage to plant, 0=no damage to plant, read-out: Corn damage rating", "value": 0, "unit": "%"},
      {"measurement": "plant injury at 250 g/ha", "setting": "[10]; 250 g ai/ha, read-out: Corn damage rating (100=total damage to plant; 0=no damage to plant)", "value": 0, "unit": "%"},
      {"measurement": "pest or weed control at 15.625 g/ha", "setting": "[11]; 15.625 g ai/ha, read-out: Velvetleaf damage rating (100=total damage to plant; 0=no damage to plant)", "value": 0, "unit": "%"},
      {"measurement": "pest or weed control at 62.5 g/ha", "setting": "[11]; 62.5 g ai/ha, 100=total damage to plant, 0=no damage to plant, read-out: Velvetleaf damage rating", "value": 0, "unit": "%"},
      {"measurement": "pest or weed control at 250 g/ha", "setting": "[11]; 250 g ai/ha, read-out: Velvetleaf damage rating (100=total damage to plant; 0=no damage to plant)", "value": 0, "unit": "%"},
      {"measurement": "pest or weed control at 15.625 g/ha", "setting": "[12]; 15.625 g ai/ha, read-out: Foxtail, Giant damage rating (100=total damage to plant; 0=no damage to plant)", "value": 0, "unit": "%"},
      {"measurement": "pest or weed control at 62.5 g/ha", "setting": "[12]; 62.5 g ai/ha, 100=total damage to plant, 0=no damage to plant, read-out: Foxtail, Giant damage rating", "value": 60, "unit": "%"},
      {"measurement": "pest or weed control at 250 g/ha", "setting": "[12]; 250 g ai/ha, read-out: Foxtail, Giant damage rating (100=total damage to plant; 0=no damage to plant)", "value": 80, "unit": "%"}
    ]}
  ]
}
